Test systems include LOX IMVI melanoma; MALME-3M melanoma; NCI-H23 lung; OVCAR-3 ovarian; OVCAR-8 ovarian; SK-MEL-5 melanoma; SNB-75 CNS; TK-10 renal; UACC-257 melanoma; MDA-MB-435.
Test in all cases: inhibition of tumour cell growth, NCI panel, 48 h

Each structure is given as a SMILES string.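 These data come from cells grown in 96-well plates and exposed to compound for 48 hours at five concentrations. GI50: concentration for 50% inhibition of growth. The concentration for full growth arrest is given as TGI.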

Take `COC1=CC2(C=CC1=O)c1cc(OC)c(OC)cc1CCN2C(=O)c1ccccc1` (stereo not drawn): the TGI in the test on LOX IMVI melanoma, with MALME-3M melanoma, with NCI-H23 lung, in the test on OVCAR-3 ovarian, in the test with OVCAR-8 ovarian and in the test with SK-MEL-5 melanoma was more than 100 µM throughout. Further, the TGI in the test with SNB-75 CNS, in the test with TK-10 renal and in the test with UACC-257 melanoma was more than 100 µM each time.

Take `CCCCCCC(=O)C/C(=N/NC(N)=S)C(=O)NC1C2CC3CC(C2)CC1C3` (stereo not drawn): the TGI in the test with LOX IMVI melanoma, with MALME-3M melanoma, in the test on NCI-H23 lung, with OVCAR-3 ovarian, in the test on OVCAR-8 ovarian and in the test on SK-MEL-5 melanoma was more than 100 µM each time. The TGI in the test with SNB-75 CNS, in the test on TK-10 renal and in the test with UACC-257 melanoma was more than 100 µM in each case.

As to `Cc1nc2ccccc2c(=O)n1-c1ccccc1F`, the TGI in the test with LOX IMVI melanoma, with MALME-3M melanoma, in the test with NCI-H23 lung, in the test with OVCAR-3 ovarian, in the test on OVCAR-8 ovarian and in the test on SK-MEL-5 melanoma was more than 100 µM throughout. In addition, the TGI in the test on SNB-75 CNS, in the test on TK-10 renal and in the test with UACC-257 melanoma was more than 100 µM in each case.

For `CC(=O)O.[Au].c1ccc([PH+](c2ccccc2)c2ccccc2)cc1`, the GI50 with LOX IMVI melanoma is 2.54 µM; in the test with MALME-3M melanoma, 1.62 µM; with NCI-H23 lung, 2.36 µM; in the test with OVCAR-3 ovarian it was 2.43 µM; in the test with OVCAR-8 ovarian, 5.45 µM; with SK-MEL-5 melanoma, 1.26 µM. Besides, the GI50 in the test on SNB-75 CNS was 8.1 µM; in the test with TK-10 renal, 2.92 µM; with UACC-257 melanoma, 1.82 µM. Besides, the TGI was found to be 7.98 µM in the test with LOX IMVI melanoma; 3.15 µM in the test on MALME-3M melanoma; 6.89 µM in the test with NCI-H23 lung; 5.52 µM in the test with OVCAR-3 ovarian; 26.3 µM in the test with OVCAR-8 ovarian; 2.9 µM in the test on SK-MEL-5 melanoma. Further, the TGI in the test with SNB-75 CNS was determined as 20.5 µM; in the test with TK-10 renal, 6.74 µM; in the test with UACC-257 melanoma it was 5.68 µM.

As for `COc1ccc(C2SCC(=O)N2NC(=O)Nc2c(C)nc3ccccn23)cc1` (stereo not drawn), the GI50 was 27.1 µM in the test on LOX IMVI melanoma; more than 100 µM in the test on MDA-MB-435; more than 100 µM in the test on OVCAR-3 ovarian; 40.2 µM in the test on OVCAR-8 ovarian; more than 100 µM in the test with SK-MEL-5 melanoma; 4.76 µM in the test on SNB-75 CNS. Besides, the GI50 in the test on TK-10 renal is 22.6 µM; in the test on UACC-257 melanoma, more than 100 µM. Also, the TGI in the test with LOX IMVI melanoma was more than 100 µM; with MDA-MB-435, more than 100 µM; in the test with OVCAR-3 ovarian, more than 100 µM; with OVCAR-8 ovarian, more than 100 µM; in the test on SK-MEL-5 melanoma, more than 100 µM; in the test on SNB-75 CNS it was 19.9 µM. Moreover, the TGI was 49 µM with TK-10 renal and more than 100 µM in the test on UACC-257 melanoma.

For the compound `CCCS(=O)(=O)/C(=C(\c1ccc(Br)cc1)S(=O)(=O)CCC)c1ccc(Br)cc1`, the TGI in the test with LOX IMVI melanoma, in the test with MALME-3M melanoma, with NCI-H23 lung, with OVCAR-3 ovarian, with OVCAR-8 ovarian and with SK-MEL-5 melanoma was more than 10 µM each time. The TGI with SNB-75 CNS, in the test on TK-10 renal and in the test with UACC-257 melanoma was more than 10 µM in each case.

For `CC(=O)N1C/C(=C\c2ccc(N(C)C)cc2)C(=O)/C(=C/c2ccc(N(C)C)cc2)C1`, the TGI with LOX IMVI melanoma was more than 100 µM; in the test on MALME-3M melanoma, more than 100 µM; in the test on NCI-H23 lung it was more than 100 µM; in the test with OVCAR-3 ovarian it was 56.3 µM; with OVCAR-8 ovarian, more than 100 µM; in the test on SK-MEL-5 melanoma it was more than 100 µM. The figures for the TGI with SNB-75 CNS, in the test with TK-10 renal and with UACC-257 melanoma were 49.4 µM, more than 100 µM and more than 100 µM, respectively.

In the case of `Cc1ccc(NC(=O)c2sc3nc(C)c(C(O)c4ccccc4)cc3c2N)cc1` (stereo not drawn), the GI50 in the test with LOX IMVI melanoma was 0.629 µM; with MALME-3M melanoma it was 0.476 µM; with NCI-H23 lung it was 0.722 µM; in the test on OVCAR-3 ovarian, 0.351 µM; in the test on OVCAR-8 ovarian, 0.611 µM; in the test with SK-MEL-5 melanoma, 0.417 µM. The GI50 was 0.245 µM with SNB-75 CNS, 2.12 µM with TK-10 renal and 4.09 µM in the test with UACC-257 melanoma. For the same compound, the TGI in the test on LOX IMVI melanoma was 19 µM; with MALME-3M melanoma it was 53.7 µM; in the test on NCI-H23 lung, more than 100 µM; in the test on OVCAR-3 ovarian it was 11.4 µM; in the test on OVCAR-8 ovarian, more than 100 µM; with SK-MEL-5 melanoma, more than 41.8 µM. Moreover, the TGI with SNB-75 CNS is 13.6 µM; in the test on TK-10 renal, 36.4 µM; in the test with UACC-257 melanoma it was more than 100 µM.

Regarding `CC(C)c1cc2c(O)c(c1)Cc1cc(C(C)C)cc(c1O)Cc1cc(C(C)C)cc(c1O)Cc1cc(C(C)C)cc(c1O)C2`, the TGI in the test on LOX IMVI melanoma, in the test with MALME-3M melanoma, in the test on NCI-H23 lung, in the test on OVCAR-3 ovarian, with OVCAR-8 ovarian and with SK-MEL-5 melanoma was more than 100 µM each time. The TGI in the test with SNB-75 CNS, with TK-10 renal and in the test on UACC-257 melanoma was more than 100 µM each time.

Regarding `N#CCC(=O)NC1C2CC3CC(C2)CC1C3` (stereo not drawn), the TGI in the test on LOX IMVI melanoma came to 23.8 µM; in the test with MALME-3M melanoma, 42.6 µM; in the test with NCI-H23 lung it was 32.6 µM; with OVCAR-3 ovarian, 32 µM; in the test with OVCAR-8 ovarian, 33.1 µM; in the test with SK-MEL-5 melanoma, 27.9 µM. Also, the TGI in the test on SNB-75 CNS amounted to 33.5 µM; with TK-10 renal it was 46.2 µM; in the test with UACC-257 melanoma, 47.2 µM.

Turning to `COc1ncc(-c2ccc3ncnc(Nc4cccc(Cl)c4)c3c2)cc1NS(=O)(=O)CCN1CCOCC1`, the GI50 with MDA-MB-435 was 0.534 µM; in the test with NCI-H23 lung it was 0.768 µM; with OVCAR-8 ovarian, 0.7 µM; with SNB-75 CNS, less than 0.01 µM. For the same compound, the TGI with MDA-MB-435 was more than 100 µM; in the test on NCI-H23 lung it was more than 100 µM; in the test on OVCAR-8 ovarian it was more than 100 µM; in the test with SNB-75 CNS, 0.739 µM.

For the compound `COc1ccc2nc3cc(Cl)ccc3c(NCCN)c2c1`, the GI50 in the test on MDA-MB-435 is 1.76 µM; in the test on TK-10 renal, 1.76 µM; with UACC-257 melanoma, 18.6 µM. The values for the TGI in the test on MDA-MB-435, in the test on TK-10 renal and in the test on UACC-257 melanoma were 3.36 µM, 3.18 µM and 33.3 µM, respectively.

For the compound `c1cc[c]([Pb]([c]2ccccc2)[c]2ccccc2)cc1`, the GI50 in the test on LOX IMVI melanoma is 3.24 µM; with MALME-3M melanoma it was 16.7 µM; in the test on NCI-H23 lung, 3.34 µM; in the test with OVCAR-3 ovarian it was 10.4 µM; with OVCAR-8 ovarian, 12.4 µM; with SK-MEL-5 melanoma, 12.3 µM. In addition, the GI50 is 6.8 µM in the test on SNB-75 CNS and 19 µM in the test on UACC-257 melanoma. The TGI with MALME-3M melanoma stood at 36.6 µM; in the test on NCI-H23 lung it was 15.8 µM; in the test on OVCAR-3 ovarian, 23.8 µM; with OVCAR-8 ovarian, 72.5 µM; in the test with SK-MEL-5 melanoma, 32.6 µM; in the test on SNB-75 CNS, 45 µM. Besides, the TGI in the test with UACC-257 melanoma amounted to 59.1 µM.

Take `FC(F)(F)c1nc(-c2ccccc2)oc1Sc1nnc(Sc2oc(-c3ccccc3)nc2C(F)(F)F)s1`: the TGI with LOX IMVI melanoma was 24.9 µM; with MALME-3M melanoma it was 34.4 µM; in the test with NCI-H23 lung it was 67.3 µM; with OVCAR-3 ovarian it was more than 57.7 µM; with OVCAR-8 ovarian, 59.8 µM; with SK-MEL-5 melanoma it was 33.9 µM. Moreover, the TGI with SNB-75 CNS, in the test with TK-10 renal and with UACC-257 melanoma was more than 100 µM each time.

`O=C(/C=C/c1c(O)ccc2ccccc12)c1ccccc1`: the TGI in the test with LOX IMVI melanoma was 44.9 µM; with MALME-3M melanoma, more than 100 µM; with NCI-H23 lung, more than 100 µM; in the test on OVCAR-3 ovarian, more than 100 µM; in the test on OVCAR-8 ovarian it was more than 100 µM; with SK-MEL-5 melanoma it was more than 100 µM. Further, the figures for the TGI with SNB-75 CNS, with TK-10 renal and with UACC-257 melanoma were 4.52 µM, more than 100 µM and more than 100 µM, respectively.

As for `Cc1[nH]c2ccccc2c1C1Cc2ccccc2N1C(=O)/C(Cl)=C/c1ccccc1` (stereo not drawn), the TGI in the test with LOX IMVI melanoma, in the test on MALME-3M melanoma, in the test with NCI-H23 lung, with OVCAR-3 ovarian, in the test on OVCAR-8 ovarian and in the test on SK-MEL-5 melanoma was more than 100 µM each time. Further, the TGI in the test with SNB-75 CNS was 99.6 µM; with TK-10 renal, more than 100 µM; in the test with UACC-257 melanoma, more than 100 µM.

In the case of `CCOc1ccc2c(c1)[n+]([O-])c(-c1nc3ccccc3s1)c(N)[n+]2[O-]`, the TGI in the test with LOX IMVI melanoma is more than 100 µM; in the test with MALME-3M melanoma, more than 100 µM; in the test on NCI-H23 lung it was more than 100 µM; in the test with OVCAR-3 ovarian, more than 100 µM; with OVCAR-8 ovarian, more than 100 µM; in the test with SK-MEL-5 melanoma, 93.8 µM. For the same compound, the TGI in the test with SNB-75 CNS, in the test with TK-10 renal and in the test with UACC-257 melanoma was more than 100 µM each time.

`N#C/C(=C\c1cc2ccccc2c2ccccc12)c1ccccc1`: the TGI in the test on LOX IMVI melanoma was more than 100 µM; in the test on MALME-3M melanoma it was 19.5 µM; in the test with NCI-H23 lung it was more than 95 µM; in the test on OVCAR-3 ovarian it was more than 25.6 µM; in the test with OVCAR-8 ovarian, more than 100 µM; in the test on SK-MEL-5 melanoma it was 19.7 µM. The values for the TGI with SNB-75 CNS, with TK-10 renal and with UACC-257 melanoma were 10.9 µM, more than 58.9 µM and more than 89 µM, respectively.

With `COc1ccc(/C(Cl)=C(\C=O)c2ccc([N+](=O)[O-])cc2)cc1`, the TGI with LOX IMVI melanoma was more than 48.1 µM; in the test with MALME-3M melanoma, 68.1 µM; in the test with NCI-H23 lung, 50.6 µM; in the test with OVCAR-3 ovarian, 53.4 µM; in the test on OVCAR-8 ovarian, 38.3 µM; in the test with SK-MEL-5 melanoma, 39.9 µM. The TGI in the test on SNB-75 CNS was 30.9 µM; in the test with TK-10 renal, more than 73.6 µM; in the test with UACC-257 melanoma, 64.9 µM.
